Earlier results in patent US12377214B2 (priority 2016, dated 2025).

System: BIS index
Details: in vivo

For `CC(C)c1cccc(C(C)C)c1O` [propofol], the “Cp50 (interaction model parameter, effect site concentration of propofol)” value is listed as 4.47.
